This note sets out measurements from patent US20230190796A1, “ENGINEERED CELLS EXPRESSING PROSTATE-SPECIFIC MEMBRANE ANTIGEN (PSMA) OR A MODIFIED FORM THEREOF AND RELATED METHODS” (Juno Therapeutics, Inc., priority 2017, published 2023).

Each structure is given as a SMILES string.

For experiment [1], the system named is T cells expressing anti-CD19 CAR/PSMA^(N9del). The experiment can be described thus: Cytokine release in co-culture in the presence of DCFPyL. Type of experiment: cell-based, human. The following applies: E:T 4:1 and 1:1; eight 3-fold serial dilutions of DCFPyL starting from 1×10^−5 M. The procedure:
Specifically, accumulated amounts (pg/mL) of cytokine(s) (IL-2, IFN-gamma, TNF-alpha) were assessed following incubation of the target cells and the various populations of engineered cells, for a period of approximately 22-24 hours. Such assays provided a measure of antigen-specific cytokine secretion per CAR+ cell in the dose. In other assays, cytolytic activity against CD19-expressing target cells was assessed after incubation with the T cells.
Cytokine amounts in culture supernatants were determined using a multiplex cytokine immunoassay (Luminex®).

Experiment [2] shares this test system. The experiment can be described thus: Cytolytic assay in the presence of DCFPyL. The experiment is classed as cell-based, human. The note with it: E:T 4:1; seven 3-fold serial dilutions of DCFPyL starting from 3.33×10^−6 M. As for the experimental part: Cytolytic activity was assessed by measuring the loss of viable target cells over a period of three days, as determined by red fluorescent signal (using the IncuCyte® Live Cell Analysis System, Essen Bioscience). The number of NLR+ target cells was determined every 2 hours over time from 0 hours to 66 hours. Where indicated, a killing index was determined as 1/area under the curve (AUC) of the NLR+ target cell count over time, from 0 hours to 66 hours.
Specifically, co-cultures were incubated with DCFPyL at one of seven (7) 3-fold serial dilutions of DCFPyL starting from 3.33×10^−6 M, or were incubated without DCFPyL (0 M).

As to `O=C(O)CCC(NC(=O)NC(CCCCNC(=O)c1ccc(F)nc1)C(=O)O)C(=O)O` (centres unmarked) [DCFPyL, 2-(3-{1-carboxy-5-[(6-fluoro-pyridine-3-carbonyl)-amino]-pentyl}-ureido)-pentanedioicacid], in experiment [1], the “effect on IFN-γ production” value was “did not substantially affect”. The “effect on cytolytic activity of T cells expressing anti-CD19 CAR/PSMA^(N9del)” value in experiment [2] is recorded as “did not affect”.
